The values below come from patent publication US20250346600A1, “TRICYCLIC DERIVATIVES AND RELATED USES” (MOMA Therapeutics, Inc., priority 2023, published 2025).

Experiment [1] deals with HT29 cells. Kind of experiment: HT29 (MSS) 7 day viability, CellTiter Glo. It is filed as cell-based. The conditions noted are these: 7 days, read-out: HT29 (MSS) Viability 7 Day CTGAbs AC50. The protocol: (§1) Compounds were dissolved in DMSO to a concentration of 10 mM. Compounds were then serially diluted in 10 3-fold steps in DMSO using an EVO (Tecan). Plates were then spun down for 1 minute at 1,000 RPM at room temperature.
(§2) The colon carcinoma lines HCT116 (RRID: CVCL_0291) and HT29 (RRID: CVCL_0320) were obtained from ATCC. […] All cells were maintained at 37° C. with 5% CO2 incubator.
(§3) After harvesting, cells were spun down for 5 minutes at 1200 RPM. Cells were resuspended in 10 mL of growth media and counted using Countess (Thermo Fisher). Cell concentrations were adjusted to 50 cells/well for HCT116 and 500 cells/well for HT29. 50 μL of diluted cells were added to compound treated 384 well plates using a 12 channel, 300 uL electronic handheld pipette (Integra). Cell treated plates were placed in 37 C with 5% CO2 incubator for 7 days.
(§4) Afterwards, cells were removed from incubator and equilibrated to room temperature for 15 minutes. 35 uL of CellTiter Glo (Promega #G7573) reagent were added to each well using a 12 channel, 300 uL electronic handheld pipette (Integra). Plates were incubated for 20 minutes at room temperature. Luminescence quantification was performed using Envision (PerkinElmer).
(§5) For data analysis, the assay background signal was determined in wells containing medium, but no cells. Potencies were calculated by linear least squares fit to the four-parameter logistic IC50 equation. The reported IC50 values are the geometrical mean of at least 2 independent replicates.

Experiment [2] deals with HCT116 cells. Kind of experiment: HCT116 (MSI) 7 day viability, CellTiter Glo. The format is cell-based. The conditions noted are these: 7 days, read-out: HCT116 (MSI) Viability 7 Day Abs AC50. The protocol:
as §1, §2, §3, §4, §5
(In general: In ATP-based viability assays light output follows the ATP content of the culture.)

Experiment [3] addresses Full length WRN protein (aa 2-1432) (Homo sapiens (Human), UniProt Q14191). Kind of experiment: WRN ATPase ADP-Glo biochemical assay, Assay Format B (100 μM ATP). The conditions noted are these: 0.25 nM WRN, 100 nM C6.18 ssDNA, 60 min preincubation, read-out: ATPase ADPGlo AC50 (uM)- Assay Format B.

Read-outs that look alike come from different tables or passages of the source.

Chain of Full length WRN protein (aa 2-1432) (Q14191 2-1432): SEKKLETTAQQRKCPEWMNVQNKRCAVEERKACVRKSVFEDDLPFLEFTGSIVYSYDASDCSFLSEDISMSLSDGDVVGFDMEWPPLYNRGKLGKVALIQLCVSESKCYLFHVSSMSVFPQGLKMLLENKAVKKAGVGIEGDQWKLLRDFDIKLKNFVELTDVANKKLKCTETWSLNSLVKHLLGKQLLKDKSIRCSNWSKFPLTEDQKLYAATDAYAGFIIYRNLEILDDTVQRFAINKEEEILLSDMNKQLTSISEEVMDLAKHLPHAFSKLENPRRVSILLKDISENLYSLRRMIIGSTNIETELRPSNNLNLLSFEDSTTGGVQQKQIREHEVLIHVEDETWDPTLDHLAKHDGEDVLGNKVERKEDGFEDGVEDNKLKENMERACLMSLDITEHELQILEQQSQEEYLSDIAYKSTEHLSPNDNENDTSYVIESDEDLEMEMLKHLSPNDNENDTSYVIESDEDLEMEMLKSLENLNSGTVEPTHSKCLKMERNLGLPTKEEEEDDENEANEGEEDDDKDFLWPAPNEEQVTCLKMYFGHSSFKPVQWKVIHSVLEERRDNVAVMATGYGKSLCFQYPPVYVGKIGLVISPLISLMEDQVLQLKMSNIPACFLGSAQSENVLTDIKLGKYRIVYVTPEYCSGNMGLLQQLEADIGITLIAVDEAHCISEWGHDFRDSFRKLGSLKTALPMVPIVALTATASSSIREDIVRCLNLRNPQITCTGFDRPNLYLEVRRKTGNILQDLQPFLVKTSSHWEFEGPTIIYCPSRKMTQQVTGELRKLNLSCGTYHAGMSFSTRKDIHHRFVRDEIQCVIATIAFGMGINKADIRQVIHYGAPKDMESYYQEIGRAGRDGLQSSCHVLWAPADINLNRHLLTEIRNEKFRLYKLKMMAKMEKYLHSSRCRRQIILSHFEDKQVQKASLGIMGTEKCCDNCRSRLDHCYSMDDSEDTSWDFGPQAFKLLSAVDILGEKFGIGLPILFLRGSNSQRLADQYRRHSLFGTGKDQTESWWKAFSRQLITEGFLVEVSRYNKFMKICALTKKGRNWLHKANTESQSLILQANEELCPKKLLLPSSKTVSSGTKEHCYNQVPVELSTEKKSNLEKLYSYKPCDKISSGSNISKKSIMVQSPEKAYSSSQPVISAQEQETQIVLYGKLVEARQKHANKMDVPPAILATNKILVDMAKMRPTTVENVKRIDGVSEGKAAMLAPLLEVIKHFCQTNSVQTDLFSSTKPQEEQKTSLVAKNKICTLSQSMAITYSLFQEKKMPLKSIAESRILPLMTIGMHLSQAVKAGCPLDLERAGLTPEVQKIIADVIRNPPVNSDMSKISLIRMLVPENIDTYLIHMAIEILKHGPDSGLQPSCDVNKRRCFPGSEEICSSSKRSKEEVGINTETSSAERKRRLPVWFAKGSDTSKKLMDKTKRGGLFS

On to “1-(5-(7-bromo-1H- benzo[d]imidazole-4- carbonyl)-2-(4- cyclobutylphenyl)- 2,3,4,5,5a,6-hexahydro- 1,2,5,7- tetraazaspiro[benzo[cd] azulene-9,1′- cyclopropan]-1(9a),2a- dien-7(8H)-yl)prop-2-en- 1-one [Compound 169]”, for which the AC50 in experiment [1] is over 3000 nM; in experiment [2], 1 to 100 nM.
As for `C=CC(=O)N1CCc2nn(-c3ccc(C(C)C)c(F)c3O)c3c2C(C1)N(C(=O)c1cnc(C(F)(F)F)c(O)c1)CC3` (stereo not shown) [Compound 64, 1-(2-(3-fluoro-2-hydroxy-4-isopropylphenyl)-5-(5-hydroxy-6-(trifluoromethyl)nicotinoyl)-2,3,4,5,5a,6,8,9-octahydro-7H-1,2,5,7-tetraazabenzo[cd]azulen-7-yl)prop-2-en-1-one], the AC50 was over 3000 nM in experiment [1] (Homo sapiens, HT-29, 168 h); 0.015 to 0.055 µM in experiment [3]; 1 to 100 nM in experiment [2] (Homo sapiens, HCT-116, 168 h).
Taken in the same sequence, the figures for `C=CC(=O)N1CCc2nn(-c3ccc(C4CCC4)c(F)c3N)c3c2C(C1)N(C(=O)c1cnc(C(F)(F)F)c(O)c1)CC3` (stereo not shown) [Compound 71, 1-(2-(2-amino-4-cyclobutyl-3-fluorophenyl)-5-(5-hydroxy-6-(trifluoromethyl)nicotinoyl)-2,3,4,5,5a,6,8,9-octahydro-7H-1,2,5,7-tetraazabenzo[cd]azulen-7-yl)prop-2-en-1-one] were over 3000 nM, 0.005 to 0.015 µM and 1 to 100 nM.
Regarding `C=CC(=O)N1CCc2nn(-c3ccc(C4CCC4)cc3O)c3c2C(C1)N(C(=O)c1ccc(C(F)(F)F)nc1N)CC3` (stereo not shown) [Compound 76, 1-(5-(2-amino-6-(trifluoromethyl)nicotinoyl)-2-(4-cyclobutyl-2-hydroxyphenyl)-2,3,4,5,5a,6,8,9-octahydro-7H-1,2,5,7-tetraazabenzo[cd]azulen-7-yl)prop-2-en-1-one], the half-maximal activity concentration (AC50) in experiment [1] (Homo sapiens, HT-29, 168 h) is over 3000 nM; in experiment [3], 0.005 to 0.015 µM; in experiment [2] (Homo sapiens, HCT-116, 168 h) it was 1 to 100 nM.
As for `C=CC(=O)N1CCc2nn(-c3ccc(C4CCC4)cc3O)c3c2C(C1)N(C(=O)c1ccc(Br)c2[nH]c(OC(F)F)nc12)CC3` (stereo not shown) [Compound 88, 1-(5-(7-bromo-2-(difluoromethoxy)-1H-benzo[d]imidazole-4-carbonyl)-2-(4-cyclobutyl-2-hydroxyphenyl)-2,3,4,5,5a,6,8,9-octahydro-7H-1,2,5,7-tetraazabenzo[cd]azulen-7-yl)prop-2-en-1-one], the AC50 in experiment [1] (Homo sapiens, HT-29, 168 h) is over 3000 nM; in experiment [3], 0.005 to 0.015 µM; in experiment [2] (Homo sapiens, HCT-116, 168 h), 1 to 100 nM.
Take `C=CC(=O)N1CCc2nn(-c3ccc(C4CCC4)cc3O)c3c2C(C1)N(C(=O)c1cnc(Br)c(OC(F)F)c1)CC3` (stereo not shown) [Compound 94, 1-(5-(6-bromo-5-(difluoromethoxy)nicotinoyl)-2-(4-cyclobutyl-2-hydroxyphenyl)-2,3,4,5,5a,6,8,9-octahydro-7H-1,2,5,7-tetraazabenzo[cd]azulen-7-yl)prop-2-en-1-one]: the AC50 in experiment [1] (Homo sapiens, HT-29, 168 h) was over 3000 nM; in experiment [3], 0.015 to 0.055 µM; in experiment [2] (Homo sapiens, HCT-116, 168 h), 1 to 100 nM.
Take `C=CC(=O)N1CCOc2nn(-c3ccc(C(C)C)c(O)n3)c3c2C(C1)N(C(=O)c1ccc(Br)c2[nH]cnc12)CC3` (stereo not shown) [Compound 105, 1-(5-(7-bromo-1H-benzo[d]imidazole-4-carbonyl)-2-(6-hydroxy-5-isopropylpyridin-2-yl)-2,3,4,5,5a,6,8,9-octahydro-7H-10-oxa-1,2,5,7-tetraazacycloocta[cd]inden-7-yl)prop-2-en-1-one]: the AC50 in experiment [1] (Homo sapiens, HT-29, 168 h) is over 3000 nM; in experiment [2] (Homo sapiens, HCT-116, 168 h) it was over 1000 nM.
Turning to `C=CC(=O)N1CCc2nn(-c3ccc(C4CCC4)cc3O)c3c2C(C1)N(C(=O)c1cnc(Br)cc1N)CC3` (stereo not shown) [Compound 132, 1-(5-(4-amino-6-bromonicotinoyl)-2-(4-cyclobutyl-2-hydroxyphenyl)-2,3,4,5,5a,6,8,9-octahydro-7H-1,2,5,7-tetraazabenzo[cd]azulen-7-yl)prop-2-en-1-one], the AC50 was over 3000 nM in experiment [1] (Homo sapiens, HT-29, 168 h); 0.0015 to 0.005 µM in experiment [3]; 1 to 100 nM in experiment [2] (Homo sapiens, HCT-116, 168 h).
For `C=CC(=O)N1CCc2nn(-c3ccc(C4CCC4)cc3O)c3c2C(C1)N(C(=O)c1cnc(Cl)c(O)c1)CC3` (stereo not shown) [Compound 140, 1-(5-(6-chloro-5-hydroxynicotinoyl)-2-(4-cyclobutyl-2-hydroxyphenyl)-2,3,4,5,5a,6,8,9-octahydro-7H-1,2,5,7-tetraazabenzo[cd]azulen-7-yl)prop-2-en-1-one], the AC50 in experiment [1] (Homo sapiens, HT-29, 168 h) was over 3000 nM; in experiment [3], 0.005 to 0.015 µM; in experiment [2] (Homo sapiens, HCT-116, 168 h), 1 to 100 nM.
The matching figures for `C=CC(=O)N1CCc2nn(-c3ccc(C4CCC4)cc3)c3c2C(C1)N(C(=O)c1ccc(C(F)(F)F)c2[nH]nc(N)c12)CC3` (stereo not shown) [Compound 147, 1-(5-(3-amino-7-(trifluoromethyl)-1H-indazole-4-carbonyl)-2-(4-cyclobutylphenyl)-2,3,4,5,5a,6,8,9-octahydro-7H-1,2,5,7-tetraazabenzo[cd]azulen-7-yl)prop-2-en-1-one]: over 3000 nM, 0.005 to 0.015 µM and 1 to 100 nM.
The matching figures for `C=CC(=O)N1CCc2nn(-c3ccc(C4CCC4)cc3O)c3c2C(C1)N(C(=O)c1cnc(OC(F)F)cc1N)CC3` (stereo not shown) [Compound 164, 1-(5-(4-amino-6-(difluoromethoxy)nicotinoyl)-2-(4-cyclobutyl-2-hydroxyphenyl)-2,3,4,5,5a,6,8,9-octahydro-7H-1,2,5,7-tetraazabenzo[cd]azulen-7-yl)prop-2-en-1-one]: over 3000 nM, 0.0015 to 0.005 µM and 1 to 100 nM.
Turning to `C=CC(=O)N1CCc2nn(-c3ccc(C4CCC4)cc3O)c3c2C(C1)N(C(=O)c1cc(F)c(C(F)(F)F)nc1N)CC3` (stereo not shown) [Compound 165, 1-(5-(2-amino-5-fluoro-6-(trifluoromethyl)nicotinoyl)-2-(4-cyclobutyl-2-hydroxyphenyl)-2,3,4,5,5a,6,8,9-octahydro-7H-1,2,5,7-tetraazabenzo[cd]azulen-7-yl)prop-2-en-1-one], the half-maximal activity concentration (AC50) in experiment [1] (Homo sapiens, HT-29, 168 h) was over 3000 nM; in experiment [3], 0.015 to 0.055 µM; in experiment [2] (Homo sapiens, HCT-116, 168 h) it was 1 to 100 nM.
The matching figures for `C=CC(=O)N1CCc2nn(-c3ccc(C(C)C)cc3)c3c2C(C1C)N(C(=O)c1cnc(C(F)(F)F)cc1N)CC3` (stereo not shown) [Compound 168, 1-(5-(4-amino-6-(trifluoromethyl)nicotinoyl)-2-(4-isopropylphenyl)-6-methyl-2,3,4,5,5a,6,8,9-octahydro-7H-1,2,5,7-tetraazabenzo[cd]azulen-7-yl)prop-2-en-1-one]: over 3000 nM, 0.005 to 0.015 µM and 1 to 100 nM.
Taken in the same sequence, the figures for `C=CC(=O)N1CCc2nn(-c3ccc(C4CCC4)cc3C#N)c3c2C(C1)N(C(=O)c1cnc(C(F)(F)F)cc1N)CC3` (stereo not shown) [Compound 171, 2-(7-acryloyl-5-(4-amino-6-(trifluoromethyl)nicotinoyl)-3,4,5,5a,6,7,8,9-octahydro-2H-1,2,5,7-tetraazabenzo[cd]azulen-2-yl)-5-cyclobutylbenzonitrile] were over 3000 nM, 0.015 to 0.055 µM and 1 to 100 nM.
The matching figures for `C=CC(=O)N1CCc2nn(-c3ccc(C4CC4)cc3O)c3c2C(C1)N(C(=O)c1ccc(C(F)(F)F)nc1N)CC3` (stereo not shown) [Compound 172, 1-(5-(2-amino-6-(trifluoromethyl)nicotinoyl)-2-(4-cyclopropyl-2-hydroxyphenyl)-2,3,4,5,5a,6,8,9-octahydro-7H-1,2,5,7-tetraazabenzo[cd]azulen-7-yl)prop-2-en-1-one]: over 3000 nM, 0.005 to 0.015 µM and 1 to 100 nM.

As usually defined, the AC50 is the concentration giving half of the maximal activity seen.
